Entries after “also recorded” stand apart in the source; their conditions may differ.
Assays:
Panc02 cells [1] = test: Orthotopic Panc02 pancreatic tumors in SCID mice; format: in vivo, mouse
From the text: (§1) Animal Models—Three different murine models were used in this investigation: 1) severe combined immune deficiency (B6.CB17-Prkdc^scid/SzJ; SCID) mice to study the role of CCKR blockade on orthotopic cancer growth and metastasis independent of immune cells, 2) immune competent Pdx1-Cre/LSL-Kras^G12D transgenic mice for a pancreatic carcinogenesis model to study the role of CCKR blockade on the pancreatic stellate cells and immune cells of the pancreas, and 3) immune competent C57BL/6 mice to study the role of CCKR antagonist in combination with immune checkpoint antibodies on growth and survival of mice bearing syngeneic PDAC tumors. Institutional guidelines for care and use of laboratory animals were followed throughout the study in accordance with protocols approved by the Georgetown University Institutional Animal Use and Care Committee.
(§2) Four weeks after tumor inoculation mice were euthanized, tumors removed and weighed, and the number of metastases counted. TILs were evaluated in tumors of the C57BL/6 mice by immunohistochemistry and fibrosis assessed with Masson's trichrome stain.

Panc02 cells [2] = test: Orthotopic Panc02 pancreatic tumors in immune competent C57BL/6 mice; format: in vivo, mouse
From the text: as §1, §2

Panc02 cells [3] = test: Survival and tumor immune cells of C57BL/6 mice bearing subcutaneous Panc02 tumors, CCKR antagonist and CTLA-4 antibody
Experimental: (§3) Cells were cultured in DMEM: F12 media with 10% FBS. […] In the following series of experiments Panc02 cells (1×10^6 or 2×10^6) were injected either orthotopically or subcutaneously in animals.
(§4) Treatments—Two different CCK receptor antagonists were used in this investigation. […] The other CCK receptor antagonist used was proglumide which is an orally bioavailable nonselective antagonist that blocks both the CCK-A and CCK-B receptors. Proglumide (Tocris Bioscience) was administered in the drinking water at a concentration of 0.1 mg/mL, or approximately 30 mg/kg/d per mouse.
(§5) Two immune checkpoint blockade antibodies were used in this investigation. The antibody to the programmed cell death protein 1 (PD1-Ab) (Bio X cell, West Lebanon, NH) was administered intraperitoneally to mice at a dose of either 125 μg×3 injections or 200 μg every 3 days.
(§6) Another series of experiments was performed in C57BL/6 mice to evaluate the role of CCKR blockade in combination with immune checkpoint antibody therapy. Each series of experiments was performed using 40 mice with syngeneic murine tumors. […] The primary end point was tumor volume (1,000 mm^3) or mouse survival. Tumors were excised and examined histologically, and by immunohistochemistry, or by flow cytometry for immune cells.
(§7) Tumor sections were also stained with either CD3 antibodies (1:85; DAKO, Carpinteria, CA); CD8 antibodies (1:75; eBioscience, San Diego, CA); CD4 antibodies (1:225; eBioscience), or FoxP3 antibody (1:30; eBioscience) and immunoreactive cells counted manually.

pancreatic primary tumor = settings: immune competent mouse, 4 mg/kg three times weekly ip; cited from earlier work
pancreatic cancer tumor = settings: immune deficient nude mouse, 2 mg/kg twice daily; cited from earlier work
Panc02 cells [4] = test: Subcutaneous Panc02 tumors in C57BL/6 mice, CCKR antagonist and PD-1 antibody; format: in vivo, mouse; settings: vs PBS; for tumor size / tumor volume: Panc02 in C57BL/6, L364,718 4 mg/kg tiw ip, PD-1 antibody 125 μg×3 injections
Experimental: as §3, §4, §5, §6, §7

Panc02 cells [5] = settings: 2×10^6 Panc02 cells, vs PBS
Experimental: as §3
(§8) Subcutaneous tumor volumes were measured with calipers weekly in animals bearing subcutaneous tumors using the formula Length×(width)^2×0.5.
as §4
Two immune checkpoint blockade antibodies were used in this investigation. […] The antibody to cytotoxic T-lymphocyte-associated antigen 4 (CTLA-4 Ab; Bio-X cell, West Lebanon, NH) was given at a dose of 200 μg every 3 days by intraperitoneal injections.
Another series of experiments was performed in C57BL/6 mice to evaluate the role of CCKR blockade in combination with immune checkpoint antibody therapy. Each series of experiments was performed using 40 mice with syngeneic murine tumors. […]
Comparisons were made by ANOVA and student's t-test. […] Survival was analyzed by Kaplan Meier analysis and differences by hazard ratios using Prism Software (GraphPad software, Inc., San Diego, CA). […]

[6] = test system: pancreas of Pdx1-Cre/LSL-Kras^G12D transgenic mouse; test: Pancreatic carcinogenesis model, Pdx1-Cre/LSL-Kras^G12D transgenic mice; format: in vivo; settings: proglumide in drinking water for 4 months
From the text: as §1
The second series of experiments was performed to analyze the role of CCKR antagonist monotherapy on the TILs of the pancreas microenvironment during pancreatic carcinogenesis using the Pdx1-Cre/LSL-Kras^G12D transgenic mouse. After the mice reached 3-4 months of age, when PanINs and fibrosis are established, mice were treated with either proglumide (in the drinking water) or untreated water. After 4 months of therapy, the pancreata were excised and compared to the pancreas of age-matched litter mates of mice on untreated water. […]

CCK-A receptor = target: T1, CCK-A receptor (Homo sapiens, UniProt P32238); settings: cited from earlier work
T1 sequence (P32238 1-428): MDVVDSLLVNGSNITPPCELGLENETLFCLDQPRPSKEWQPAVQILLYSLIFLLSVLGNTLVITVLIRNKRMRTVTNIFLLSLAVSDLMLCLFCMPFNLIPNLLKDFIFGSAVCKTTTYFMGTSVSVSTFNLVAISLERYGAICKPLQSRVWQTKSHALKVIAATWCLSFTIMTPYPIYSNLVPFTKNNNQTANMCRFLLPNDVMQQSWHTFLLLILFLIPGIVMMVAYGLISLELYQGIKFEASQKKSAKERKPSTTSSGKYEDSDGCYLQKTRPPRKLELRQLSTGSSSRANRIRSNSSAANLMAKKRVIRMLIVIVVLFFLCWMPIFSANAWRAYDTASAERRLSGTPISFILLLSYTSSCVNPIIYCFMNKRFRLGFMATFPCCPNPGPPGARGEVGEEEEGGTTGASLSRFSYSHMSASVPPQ

[7] = cited from earlier work
CCK-B receptor = target: T2, CCK-B receptor (Homo sapiens, UniProt P32239); settings: cited from earlier work
T2 sequence (P32239 1-447): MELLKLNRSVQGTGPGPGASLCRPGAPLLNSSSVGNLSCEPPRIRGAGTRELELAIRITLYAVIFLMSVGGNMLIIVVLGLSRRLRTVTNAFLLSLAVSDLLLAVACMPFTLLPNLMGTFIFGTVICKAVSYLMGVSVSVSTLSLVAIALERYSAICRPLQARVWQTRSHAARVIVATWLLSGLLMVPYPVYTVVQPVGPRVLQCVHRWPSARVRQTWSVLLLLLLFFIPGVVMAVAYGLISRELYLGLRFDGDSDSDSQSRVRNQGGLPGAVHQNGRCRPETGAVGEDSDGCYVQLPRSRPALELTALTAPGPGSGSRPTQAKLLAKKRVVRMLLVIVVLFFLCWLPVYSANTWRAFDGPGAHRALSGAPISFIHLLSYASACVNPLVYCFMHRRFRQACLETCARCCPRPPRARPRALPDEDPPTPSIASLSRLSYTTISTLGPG

[8] = Panc02 tumors, immunohistochemistry

Experimental for mT3 cells: The cell line is also syngeneic to C57BL/6 mice; and therefore, capable of being studied in immune competent mice.
as §8
Proglumide (Tocris Bioscience) was administered in the drinking water at a concentration of 0.1 mg/mL, or approximately 30 mg/kg/d per mouse.
The antibody to the programmed cell death protein 1 (PD1-Ab) (Bio X cell, West Lebanon, NH) was administered intraperitoneally to mice at a dose of either 125 μg×3 injections or 200 μg every 3 days.
In the 4th experiment, the mT3 cells (1×10^5) were injected and mice were treated with PBS, proglumide, the PD-1 antibody, or the combination of both compounds. […] The primary end point was tumor volume (1,000 mm^3) or mouse survival. Tumors were excised and examined histologically, and by immunohistochemistry, or by flow cytometry for immune cells.
Some tumors were stained with an antibody to α-SMA (Abeam; Ab124964 at 1:6000). Tumor sections were also stained with either CD3 antibodies (1:85; DAKO, Carpinteria, CA); CD8 antibodies (1:75; eBioscience, San Diego, CA); CD4 antibodies (1:225; eBioscience), or FoxP3 antibody (1:30; eBioscience) and immunoreactive cells counted manually.

CN1C(=O)[C@@H](NC(=O)c2cc3ccccc3[nH]2)N=C(c2ccccc2)c2ccccc21 [L364,718, Devazepide]
primary tumor weight (Panc02 cells [1]; orthotopic 10^6 Panc02 cells, 4 mg/kg three times a week ip, four weeks, vs PBS): significantly reduced the primary tumor weight
metastases (Panc02 cells [1]; orthotopic Panc02, 4 mg/kg three times a week ip, 75% of untreated SCID mice had metastases): no metastases
metastases (Panc02 cells [2]; C57BL/6 mice, orthotopic Panc02, 4 mg/kg three times a week ip): decreased metastases
primary tumor size (Panc02 cells [2]; C57BL/6 mice, orthotopic Panc02, 4 mg/kg three times a week ip, vs PBS): did not alter the primary tumor size
CD3+ lymphocytes in tumor by immunohistochemistry (Panc02 cells [2]; orthotopic Panc02 tumors, C57BL/6 mice, vs PBS): significant increase in CD3+ lymphocytes
average CD4+ cell numbers in tumor (Panc02 cells [3]; [8]): increased
average CD8+ cell numbers in tumor (Panc02 cells [3]; [8]): increased
mice still alive at day 50 (Panc02 cells [3]; subcutaneous Panc02, C57BL/6, all PBS controls had died by day 50): 42%
inhibition of pancreatic primary tumor growth (pancreatic primary tumor): insufficient dose, by itself, to inhibit pancreatic primary tumor growth
number of metastases (pancreatic primary tumor): did decrease the number of metastases
pancreatic cancer tumor size (pancreatic cancer tumor): significant reduction in pancreatic cancer tumor size
tumor size / tumor volume (Panc02 cells [4]): did not significantly decrease the tumor size
tumor size / tumor volume (Panc02 cells [4]; listed as L-364,718): not significantly smaller
CD4+ cells in tumor (immunohistochemistry) (Panc02 cells [4]; Panc02 tumors): increased
CD8+ cells in tumor (immunohistochemistry) (Panc02 cells [4]; Panc02 tumors): increased

CCCN(CCC)C(=O)C(CCC(=O)O)NC(=O)c1ccccc1 (stereo not shown) [proglumide]
prolonged life (Panc02 cells [5]): 5 days
fibrosis of the pancreas microenvironment (trichrome stain) ([6]; vs age-matched controls): significantly diminished fibrosis; also recorded: significantly reversed fibrosis
CD3+ cells in mouse pancreas ([6]; vs untreated water): significant increase in the CD3+ cells
fibrosis of tumor microenvironment (Masson's trichrome stain) (Panc02 cells [2]; orthotopic Panc02 tumors, vs PBS/vehicle): marked decreased fibrosis
antagonism at the CCK-A receptor (CCK-A receptor): weaker nonselective CCK antagonist
water solubility [7]: water soluble
survived longer than PBS control mice (mT3 cells; mT3 pancreatic cancers, average): 12 days
number of Foxp3+ cells (Tregs) (mT3 cells; mT3 tumors, vs PBS): decreased
tumor-associated fibrosis by Masson's trichrome stain (mT3 cells; mT3 tumors, vs PBS): noticeably less
α-SMA immunoreactivity (activated fibroblasts) (mT3 cells; mT3 tumors, vs PBS): somewhat decreased with proglumide, but this change was not statistically significant
quantitative analysis of intratumoral fibrosis (mT3 cells; mT3 tumors, vs PBS controls and PD-1 monotherapy, p<0.01): significantly less fibrosis
growth of mT3 tumors / tumor size (mT3 cells; proglumide 0.1 mg/mL drinking water, PD-1 antibody 200 μg every three days, vs PBS): significantly slowed tumor growth; also recorded: significantly slower
antagonism at the CCK-B receptor (CCK-B receptor): inhibitory properties at both the CCK-A and CCK-B receptor types

From US12453735B2, “Treating cancer with a CCK receptor inhibitor and an immune checkpoint inhibitor” (GEORGETOWN UNIVERSITY, priority 2017, dated 2025)
